# Laboratory results: publication PMC10433800, “Dissecting the Arginine and Lysine Biosynthetic Pathways and Their Relationship in Haloarchaeon Natrinema gari J7-2 via Endogenous CRISPR-Cas System-Based Genome Editing” (Microbiology Spectrum, 2023)
# Target: T1, NgArgX (Natrinema gari, UniProt L9YZH8)
# T1 construct: gene C486_12678; ArgX with His tag (C-terminal in complementation plasmids), expressed in and partially purified from the J7-2 delta-argWX strain; carrier ArgW with N-terminal His tag purified from E. coli BL21(DE3); with Alpha-aminoadipate/glutamate carrier protein LysW/ArgW
# T1 sequence (L9YZH8 1-291): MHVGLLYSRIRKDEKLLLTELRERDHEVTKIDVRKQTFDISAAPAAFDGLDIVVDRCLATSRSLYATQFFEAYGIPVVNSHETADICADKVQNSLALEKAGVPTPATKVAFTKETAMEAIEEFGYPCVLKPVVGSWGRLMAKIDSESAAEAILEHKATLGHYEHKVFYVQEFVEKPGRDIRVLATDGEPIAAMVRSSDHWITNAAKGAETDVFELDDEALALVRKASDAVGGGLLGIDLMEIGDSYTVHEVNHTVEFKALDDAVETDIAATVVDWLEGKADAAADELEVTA
# Assay: LC-MS/MS of trypsin-digested NgArgW-glutamate product
# Format: biochemical
# Conditions: 10 mM glutamate, 20 mM ATP, 1 mM MgCl2, 0.1 mM ZnSO4, 3 M KCl, 100 mM HEPES pH 7.5, 45 °C, 12 h; glutamate ligated to Glu54 of NgArgW; enzyme partially purified
smiles,measurement,value
N[C@@H](CCC(=O)O)C(=O)O [glutamate],LC-MS/MS of trypsin-digested NgArgW-glutamate product,both NgArgX and NgArgXa specifically act on glutamate rather than AAA
